# Results: patent publication US10647713B2 (Nimbus Lakshmi, Inc., priority 2016, dated 2020)
# Target: human TYK2 (JH2domain-pseudokinase) (Homo sapiens (Human), UniProt P29597)
# Assay: TYK2 JH2 Domain Binding Assay (KINOMEscan, DiscoveRx)
# Settings: 11-point dilution, duplicate
# In short: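 Kd from duplicate 11-point 3-fold dilutions starting at 30,000 nM, fitted by Hill equation with slope fixed at −1. Compounds (final 0.9% DMSO) displace DNA-tagged HEK293-expressed TYK2 JH2 fusion (<0.1 nM) from ligand-coated beads over 1 h at room temperature; eluted kinase read by qPCR.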
# human TYK2 (JH2domain-pseudokinase), sequence (P29597 556-888): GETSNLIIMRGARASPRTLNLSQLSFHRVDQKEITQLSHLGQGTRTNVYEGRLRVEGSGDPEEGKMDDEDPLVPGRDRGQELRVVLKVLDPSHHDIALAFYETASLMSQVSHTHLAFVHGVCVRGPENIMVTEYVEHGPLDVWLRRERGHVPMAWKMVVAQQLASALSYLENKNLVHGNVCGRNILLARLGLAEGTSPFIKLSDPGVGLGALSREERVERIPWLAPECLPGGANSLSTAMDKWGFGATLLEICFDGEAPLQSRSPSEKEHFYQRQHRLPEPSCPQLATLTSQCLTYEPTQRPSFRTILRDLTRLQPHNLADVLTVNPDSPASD
row,Kd,SMILES
1,> 10 nM,"COc1c(C#N)cccc1Nc1cc(NC(=O)C2CC2)nc2[nH]c(C(F)F)nc12 [I-29, N-(7-((3-cyano-2-methoxyphenyl)amino)-2-(difluoromethyl)-3H-imidazo[4,5-b]pyridin-5-yl)cyclopropanecarboxamide]"
2,0.1 to 0.5 nM,"COc1c(Nc2cc(Nc3cccc(C#N)n3)nc3[nH]c(C(F)F)nc23)cccc1-c1ccn(C)n1 [I-25, 6-((2-(difluoromethyl)-7-((2-methoxy-3-(1-methyl-1H-pyrazol-3-yl)phenyl)amino)-3H-imidazo[4,5-b]pyridin-5-yl)amino)picolinonitrile]"
3,0.1 to 0.5 nM,"COc1c(Nc2cc(NC(=O)[C@@H]3C[C@@H]3F)nc3[nH]c(C(F)F)nc23)cccc1-c1ncn(C)n1 (stereo in doubt) [I-213, N-(2-(difluoromethyl)-7-((2-methoxy-3-(1-methyl-1H-1,2,4-triazol-3-yl)phenyl)amino)-3H-imidazo[4,5-b]pyridin-5-yl)-2-fluorocyclopropane-1-carboxamide]"
4,0.1 to 0.5 nM,"COc1c(Nc2cc(NC(=O)[C@H]3C[C@H]3F)nc3[nH]c(C(F)F)nc23)cccc1-c1ncn(C)n1 [I-440, (1R,2R)—N-(2-(difluoromethyl)-7-((2-methoxy-3-(1-methyl-1H-1,2,4-triazol-3-yl)phenyl)amino)-3H-imidazo[4,5-b]pyridin-5-yl)-2-fluorocyclopropane-1-carboxamide]"
5,1 to 10 nM,"Cc1cn(C)nc1-c1ccc(Nc2cc(NC(=O)C3CC3(C)C)nc3[nH]c(C(F)F)nc23)c(S(C)(=O)=O)c1 (centres unmarked) [I-364, N-(2-(difluoromethyl)-7-((4-(1,4-dimethyl-1H-pyrazol-3-yl)-2-(methylsulfonyl)phenyl)amino)-3H-imidazo[4,5-b]pyridin-5-yl)-2,2-dimethylcyclopropane-1-carboxamide]"
6,1 to 10 nM,"COc1c(Nc2cc(Nc3ccn(C)n3)nc3[nH]cnc23)cccc1-c1ncn(C)n1 [I-8, N7-(2-methoxy-3-(1-methyl-1H-1,2,4-triazol-3-yl)phenyl)-N5-(1-methyl-1H-pyrazol-3-yl)-3H-imidazo[4,5-b]pyridine-5,7-diamine]"
7,0.5 to 1 nM,"CP(C)(=O)c1ccccc1Nc1cc(NC(=O)C2CC2)nc2[nH]c(C(F)F)nc12 [I-242, N-(2-(difluoromethyl)-7-((2-(dimethylphosphoryl)phenyl)amino)-3H-imidazo[4,5-b]pyridin-5-yl)cyclopropanecarboxamide]"
8,< 0.1 nM,"Cc1cn(C)nc1-c1ccc(Nc2cc(NC(=O)C3CC3)nc3[nH]c(C(F)F)nc23)c(S(C)(=O)=O)c1 [I-246, N-(2-(difluoromethyl)-7-((4-(1,4-dimethyl-1H-pyrazol-3-yl)-2-(methylsulfonyl)phenyl)amino)-3H-imidazo[4,5-b]pyridin-5-yl)cyclopropanecarboxamide]"
9,1 to 10 nM,"COc1c(Nc2cc(Nc3cnc(N4CC[C@@H](OC)C4)c(C#N)n3)nc3[nH]c(C(F)F)nc23)cccc1-c1nnn(C)n1 [I-48, (R)-6-((2-(difluoromethyl)-7-((2-methoxy-3-(2-methyl-2H-tetrazol-5-yl)phenyl)amino)-3H-imidazo[4,5-b]pyridin-5-yl)amino)-3-(3-methoxypyrrolidin-1-yl)pyrazine-2-carbonitrile]"

# The next lines start with the compound.
row,SMILES,Kd
1,"Cc1nc2c(Nc3ccc(C4CCCCO4)cc3N(C)S(C)(=O)=O)cc(NC(=O)C3CC3)nc2[nH]1 (centres unmarked) [I-375, N-(2-methyl-7-((2-(N-methylmethylsulfonamido)-4-(tetrahydro-2H-pyran-2-yl)phenyl)amino)-3H-imidazo[4,5-b]pyridin-5-yl)cyclopropanecarboxamide]",0.1 to 0.5 nM
2,"Cc1nc2c(Nc3ccc(-c4ncc(C)n4C)cc3S(C)(=O)=O)cc(NC(=O)C3CC3)nc2[nH]1 [I-462, N-(7-((4-(1,5-dimethyl-1H-imidazol-2-yl)-2-(methylsulfonyl)phenyl)amino)-2-methyl-3H-imidazo[4,5-b]pyridin-5-yl)cyclopropanecarboxamide]",0.1 to 0.5 nM
3,"Cc1nc2c(Nc3ccc(-c4nn(C)cc4C)cc3S(C)(=O)=O)cc(NC(=O)C3CC3)nc2[nH]1 [I-241, N-(7-((4-(1,4-dimethyl-1H-pyrazol-3-yl)-2-(methylsulfonyl)phenyl)amino)-2-methyl-3H-imidazo[4,5-b]pyridin-5-yl)cyclopropanecarboxamide]",< 0.1 nM
4,"Cc1c(-c2ccc(Nc3cc(NC(=O)[C@H]4CC4(F)F)nc4[nH]c(C(F)F)nc34)c(S(C)(=O)=O)c2)cnn1C [I-309, (R)—N-(2-(difluoromethyl)-7-((4-(1,5-dimethyl-1H-pyrazol-4-yl)-2-(methylsulfonyl)phenyl)amino)-3H-imidazo[4,5-b]pyridin-5-yl)-2,2-difluorocyclopropane-1-carboxamide]",0.1 to 0.5 nM
5,"CS(=O)(=O)c1cc(C2COCCO2)ccc1Nc1cc(NC(=O)C2CC2)nc2[nH]c(C(F)F)nc12 (centres unmarked) [I-588, N-(7-((4-(1,4-dioxan-2-yl)-2-(methylsulfonyl)phenyl)amino)-2-(difluoromethyl)-3H-imidazo[4,5-b]pyridin-5-yl)cyclopropanecarboxamide]",0.1 to 0.5 nM
6,"CCOc1ccc(Nc2cc(Nc3ccc(F)cc3S(C)(=O)=O)c3nc(C)[nH]c3n2)nc1C#N [I-608, 3-ethoxy-6-((7-((4-fluoro-2-(methylsulfonyl)phenyl)amino)-2-methyl-3H-imidazo[4,5-b]pyridin-5-yl)amino)picolinonitrile]",0.1 to 0.5 nM
7,CS(=O)(=O)c1cc(F)ccc1Nc1cc(Nc2ccc3c(n2)CCOC3)nc2[nH]c(C(F)F)nc12 [I-643],0.1 to 0.5 nM
8,"Cc1nc2c(Nc3ccc(C4CC4)cc3S(C)(=O)=O)cc(Nc3cc4n(n3)CCOC4)nc2[nH]1 [I-437, N7-(4-cyclopropyl-2-(methylsulfonyl)phenyl)-N5-(6,7-dihydro-4H-pyrazolo[5,1-c][1,4]oxazin-2-yl)-2-methyl-3H-imidazo[4,5-b]pyridine-5,7-diamine]",< 0.1 nM
9,"COc1c(Nc2cc(Nc3ccc(C)nn3)nc3[nH]cnc23)cccc1-c1ncn(C)n1 [I-4, N7-(2-methoxy-3-(1-methyl-1H-1,2,4-triazol-3-yl)phenyl)-N5-(6-methylpyridazin-3-yl)-3H-imidazo[4,5-b]pyridine-5,7-diamine]",0.1 to 0.5 nM
10,"Cc1nc2c(Nc3ccc([C@H]4CCCO4)cc3S(C)(=O)=O)cc(NC(=O)C3CC3(F)F)nc2[nH]1 (stereo partly drawn) [I-340, 2,2-difluoro-N-(2-methyl-7-((2-(methylsulfonyl)-4-((R)-tetrahydrofuran-2-yl)phenyl)amino)-3H-imidazo[4,5-b]pyridin-5-yl)cyclopropane-1-carboxamide]",0.5 to 1 nM
11,"Cc1nc2c(Nc3ccc(-c4nn(C)c(C)c4C)cc3S(C)(=O)=O)cc(NC(=O)C3CC3)nc2[nH]1 [I-560, N-(2-methyl-7-((2-(methylsulfonyl)-4-(1,4,5-trimethyl-1H-pyrazol-3-yl)phenyl)amino)-3H-imidazo[4,5-b]pyridin-5-yl)cyclopropanecarboxamide]",< 0.1 nM
12,"Cc1nc(-c2ccc(Nc3cc(NC(=O)C4CC4)nc4[nH]c(C(F)F)nc34)c(S(C)(=O)=O)c2)cs1 [I-545, N-(2-(difluoromethyl)-7-((2-(methylsulfonyl)-4-(2-methylthiazol-4-yl)phenyl)amino)-3H-imidazo[4,5-b]pyridin-5-yl)cyclopropanecarboxamide]",0.1 to 0.5 nM
13,"Cc1nc2c(Nc3ccccc3N(C)S(=O)(=O)C3CC3)cc(Nc3cccc(C#N)n3)nc2[nH]1 [I-180, N-(2-((5-((6-cyanopyridin-2-yl)amino)-2-methyl-3H-imidazo[4,5-b]pyridin-7-yl)amino)phenyl)-N-methylcyclopropanesulfonamide]",0.1 to 0.5 nM
14,"CS(=O)(=O)c1cc([C@H]2CCCCO2)ccc1Nc1cc(NC(=O)C2CC2)nc2[nH]c(C(F)F)nc12 [I-248, (R)—N-(2-(difluoromethyl)-7-((2-(methylsulfonyl)-4-(tetrahydro-2H-pyran-2-yl)phenyl)amino)-3H-imidazo[4,5-b]pyridin-5-yl)cyclopropanecarboxamide]",< 0.1 nM
15,"Cc1nc2c(Nc3ccc(-c4cnn(C5CC5)c4C)cc3S(C)(=O)=O)cc(NC(=O)C3CC3)nc2[nH]1 [I-562, N-(7-((4-(1-cyclopropyl-5-methyl-1H-pyrazol-4-yl)-2-(methylsulfonyl)phenyl)amino)-2-methyl-3H-imidazo[4,5-b]pyridin-5-yl)cyclopropanecarboxamide]",< 0.1 nM
16,"Cc1nc2c(Nc3ccc(-c4nc(C)sc4C)cc3S(C)(=O)=O)cc(Nc3cnc(C)c(C)n3)nc2[nH]1 [I-581, N5-(5,6-dimethylpyrazin-2-yl)-N7-(4-(2,5-dimethylthiazol-4-yl)-2-(methylsulfonyl)phenyl)-2-methyl-3H-imidazo[4,5-b]pyridine-5,7-diamine]",0.1 to 0.5 nM
17,"CS(=O)(=O)c1cc([C@H]2CCCOC2)ccc1Nc1cc(NC(=O)C2CC2(F)F)nc2[nH]c(C(F)F)nc12 (stereo partly drawn) [I-360, N-(2-(difluoromethyl)-7-((2-(methylsulfonyl)-4-((R)-tetrahydro-2H-pyran-3-yl)phenyl)amino)-3H-imidazo[4,5-b]pyridin-5-yl)-2,2-difluorocyclopropane-1-carboxamide]",1 to 10 nM
18,"Cc1cc(Nc2cc(Nc3ccc(-c4nc(C)c(C)s4)cc3S(C)(=O)=O)c3nc(C)[nH]c3n2)nc(C)n1 [I-470, N5-(2,6-dimethylpyrimidin-4-yl)-N7-(4-(4,5-dimethylthiazol-2-yl)-2-(methylsulfonyl)phenyl)-2-methyl-3H-imidazo[4,5-b]pyridine-5,7-diamine]",0.1 to 0.5 nM
19,"Cc1nc2c(Nc3ccc(N4CCC4)cc3N(C)S(C)(=O)=O)cc(NC(=O)C3CC3)nc2[nH]1 [I-129, N-(7-((4-(azetidin-1-yl)-2-(N-methylmethylsulfonamido)phenyl)amino)-2-methyl-3H-imidazo[4,5-b]pyridin-5-yl)cyclopropanecarboxamide]",1 to 10 nM
20,"COC(C)c1ccc(Nc2cc(NC(=O)C3CC3)nc3[nH]c(C)nc23)c(S(C)(=O)=O)c1 (centres unmarked) [I-400, N-(7-((4-(1-methoxyethyl)-2-(methylsulfonyl)phenyl)amino)-2-methyl-3H-imidazo[4,5-b]pyridin-5-yl)cyclopropanecarboxamide]",0.1 to 0.5 nM
